{"source": "patent US20100022559A1", "about": "“BISOXIMES AS FUNGICIDES” (BAYER CROPSCIENCE AG, priority 2006, published 2010)", "data": [{"test": "logP determination by HPLC on a reversed-phase column (C 18), EEC Directive 79/831 Annex V.A8", "format": "physicochemical", "conditions": "value marked [b]", "method": "The stated logP values were determined in accordance with EEC Directive 79/831 Annex V.A8 by HPLC (high performance liquid chromatography) on a reversed-phase column (C 18). Temperature: 43° C.", "values": [{"smiles": "CC(=NOCCCCON=C(c1ccccc1)c1ncccc1C)c1cccc(C)n1", "note": "[compound 325]", "logP": "3.89^[b]"}, {"smiles": "CC(=NOCCCCON=C(C)c1cccc(CC(C)C)n1)c1cccc(C)n1", "note": "[compound 326]", "logP": "6.16^[b]"}, {"smiles": "CCc1cccc(C(C)=NOCCCCON=C(C)c2cccc(C)n2)n1", "note": "[compound 329]", "logP": "4.72^[b]"}, {"smiles": "CCCC(=NOCCCCON=C(C)c1cccc(C)n1)c1cccc(C)n1", "note": "[compound 330]", "logP": "4.82^[b]"}, {"smiles": "CC(=NOCCCCON=C(c1ccccc1)c1cccc(C)n1)c1cccc(C)n1", "note": "[compound 332]", "logP": "3.51^[b]"}, {"smiles": "CCC(=NOCCCCON=C(C)c1cccc(C)n1)c1cccc(C)n1", "note": "[compound 333]", "logP": "4.10^[b]"}, {"smiles": "CC(=NOCCCCON=C(c1cccc(C)n1)C(C)C)c1cccc(C)n1", "note": "[compound 334]", "logP": "4.72^[b] (isomer B)"}, {"smiles": "CC(=NOCCCCON=C(c1cccc(C)n1)C1CC1)c1cccc(C)n1", "note": "[compound 335]", "logP": "3.28^[b]"}, {"smiles": "CC(=NOCCCCON=C(C)c1ccnc(C)n1)c1cccc(C)n1", "note": "[compound 336]", "logP": "3.28^[b]"}, {"smiles": "CC(=NOCCCCON=C(C)c1cccc(C)n1)c1cncc(C)c1", "note": "[compound 337]", "logP": "2.20^[b]"}, {"smiles": "CC(=NOCCCCON=C(C)c1cccc(C)n1)c1ccnc(C)c1", "note": "[compound 338]", "logP": "1.71^[b]"}, {"smiles": "CC(=NOCCCCCCON=C(Cc1ccccc1)c1ncccc1C)c1cccc(C)n1", "note": "[compound 339]", "logP": "5.90^[b] (isomer B)"}, {"smiles": "CC(=NOCCCCCCON=C(C)c1cccc(Cc2ccccc2)n1)c1cccc(C)n1", "note": "[compound 340]", "logP": "6.86^[b]"}, {"smiles": "CC(=NOCCCCCCON=C(c1ccccc1)c1ncccc1C)c1cccc(C)n1", "note": "[compound 341]", "logP": "4.98^b]"}, {"smiles": "CC(=NOCCCCCCON=C(C)c1cccc(CC(C)C)n1)c1cccc(C)n1", "note": "[compound 342]", "logP": "7.36^[b]"}, {"smiles": "CCC(=NOCCCCCCON=C(C)c1cccc(C)n1)c1ncccc1C", "note": "[compound 343]", "logP": "4.87^[b] (isomer B)"}, {"smiles": "CC(=NOCCCCCCON=C(C)c1cnnc(C)n1)c1cccc(C)n1", "note": "[compound 344]", "logP": "4.15^[b]"}, {"smiles": "CCCC(=NOCCCCCCON=C(C)c1cccc(C)n1)c1cccc(C)n1", "note": "[compound 345]", "logP": "6.16^[b]"}, {"smiles": "CC(=NOCCCCCCON=C(c1cccc(C)n1)C1CC1)c1cccc(C)n1", "note": "[compound 347]", "logP": "4.56^[b]"}, {"smiles": "CC(=NOCCCCCCON=C(C)c1ccnc(C)n1)c1cccc(C)n1", "note": "[compound 348]", "logP": "4.51^[b]"}, {"smiles": "C=C(CON=C(C)c1cccc(C)n1)CON=C(Cc1ccccc1)c1ncccc1C", "note": "[compound 349]", "logP": "4.82^[b]"}, {"smiles": "C=C(CON=C(C)c1cccc(C)n1)CON=C(c1ccccc1)c1ncccc1C", "note": "[compound 351]", "logP": "3.89^[b]"}, {"smiles": "C=C(CON=C(C)c1cccc(C)n1)CON=C(C)c1cccc(CC(C)C)n1", "note": "[compound 352]", "logP": "6.03^[b]"}, {"smiles": "C=CCCC(=NOCC(=C)CON=C(C)c1cccc(C)n1)c1ncccc1C", "note": "[compound 353]", "logP": "4.56^[b]"}, {"smiles": "C=C(CON=C(C)c1cccc(C)n1)CON=C(C)c1cccc(CC)n1", "note": "[compound 354]", "logP": "4.67^[b]"}, {"smiles": "C=C(CON=C(C)c1cccc(C)n1)CON=C(CCC)c1cccc(C)n1", "note": "[compound 355]", "logP": "4.87^[b]"}, {"smiles": "C=C(CON=C(C)c1cccc(C)n1)CON=C(CC(C)C)c1cccc(C)n1", "note": "[compound 356]", "logP": "5.52^[b]"}, {"smiles": "C=C(CON=C(C)c1cccc(C)n1)CON=C(c1ccccc1)c1cccc(C)n1", "note": "[compound 357]", "logP": "3.65^[b]"}, {"smiles": "C=C(CON=C(C)c1cccc(C)n1)CON=C(CC)c1cccc(C)n1", "note": "[compound 358]", "logP": "4.30^[b]"}, {"smiles": "C=C(CON=C(C)c1cccc(C)n1)CON=C(C)c1ccnc(C)n1", "note": "[compound 360]", "logP": "3.24^[b]"}, {"smiles": "C=C(CON=C(C)c1cncc(C)c1)CON=C(C)c1cccc(C)n1", "note": "[compound 361]", "logP": "2.20^[b]"}, {"smiles": "CC(=NOCC(C)(C)CON=C(Cc1ccccc1)c1ncccc1C)c1cccc(C)n1", "note": "[compound 363]", "logP": "5.71^[b]"}, {"smiles": "CC(=NOCC(C)(C)CON=C(c1ccccc1)c1ncccc1C)c1cccc(C)n1", "note": "[compound 365]", "logP": "4.51^[b]"}, {"smiles": "CC(=NOCC(C)(C)CON=C(CC(C)C)c1ncccc1C)c1cccc(C)n1", "note": "[compound 366]", "logP": "5.97^[b]"}, {"smiles": "CC(=NOCC(C)(C)CON=C(c1ncccc1C)C(C)C)c1cccc(C)n1", "note": "[compound 368]", "logP": "4.56^[b]"}, {"smiles": "CCC(=NOCC(C)(C)CON=C(C)c1cccc(C)n1)c1ncccc1C", "note": "[compound 369]", "logP": "4.51^[b]"}, {"smiles": "CC(=NOCCCCON=C(C)c1nc(C)c(C)s1)c1cccc(C)n1", "note": "[compound 377]", "logP": "4.62^[b]"}, {"smiles": "CC(=NOCCCCON=C(C)c1cccc(C)n1)c1ccc2c(c1)OCO2", "note": "[compound 378]", "logP": "4.35^[b]"}, {"smiles": "CC(=NOCCCCON=C(C)c1ccccc1Cl)c1cccc(C)n1", "note": "[compound 379]", "logP": "4.85^[b]"}, {"smiles": "COc1ccc(C(C)=NOCCCCON=C(C)c2cccc(C)n2)cc1OC", "note": "[compound 380]", "logP": "3.85^[b]"}, {"smiles": "CC(=NOCCCCON=C(C)c1cc2ccccc2o1)c1cccc(C)n1", "note": "[compound 381]", "logP": "4.74^[b]"}, {"smiles": "CC(=NOCCCCON=C(C)c1cccc(C)n1)c1ccc(C)nc1", "note": "[compound 382]", "logP": "1.90^[b]"}, {"smiles": "CC(=NOCCCCON=C(C)c1cccc2ccccc12)c1cccc(C)n1", "note": "[compound 383]", "logP": "5.19^[b]"}, {"smiles": "CC(=NOCCCCON=C(C)c1cccc(C)n1)c1cccnc1", "note": "[compound 384]", "logP": "2.18^[b]"}, {"smiles": "CC(=NOCCCCON=C(C)c1cccc(C)n1)c1ccccc1", "note": "[compound 385]", "logP": "4.68^[b]"}, {"smiles": "CC(=NOCCCCCCON=C(C)c1cccc(C)n1)c1cc(C)ccn1", "note": "[compound 386]", "logP": "3.94^[b]"}, {"smiles": "CC(=NOCCCCCCON=C(C)c1cccc(C)n1)c1cccc(C(F)(F)F)c1", "note": "[compound 387]", "logP": "6.51^[b]"}, {"smiles": "CC(=NOCCCCCCON=C(C)c1cccc(C)n1)c1ccccn1", "note": "[compound 388]", "logP": "4.41^[b]"}, {"smiles": "CC(=NOCCCCCCON=C(C)c1cccc(C)n1)c1ccc2c(c1)OCO2", "note": "[compound 390]", "logP": "5.42^[b]"}, {"smiles": "CC(=NOCCCCCCON=C(C)c1ccccc1Cl)c1cccc(C)n1", "note": "[compound 391]", "logP": "5.84^[b]"}, {"smiles": "COc1ccc(C(C)=NOCCCCCCON=C(C)c2cccc(C)n2)cc1OC", "note": "[compound 392]", "logP": "4.91^[b]"}, {"smiles": "CC(=NOCCCCCCON=C(C)c1cc2ccccc2o1)c1cccc(C)n1", "note": "[compound 393]", "logP": "5.78^[b]"}, {"smiles": "CC(=NOCCCCCCON=C(C)c1cccc(C)n1)c1ccc(C)nc1", "note": "[compound 394]", "logP": "2.62^[b]"}, {"smiles": "CC(=NOCCCCCCON=C(C)c1cccc2ccccc12)c1cccc(C)n1", "note": "[compound 395]", "logP": "6.16^[b]"}, {"smiles": "CC(=NOCCCCCCON=C(C)c1cccc(C)n1)c1cccnc1", "note": "[compound 396]", "logP": "3.15^b]"}, {"smiles": "CC(=NOCCCCCCON=C(C)c1cccc(C)n1)c1ccccc1", "note": "[compound 397]", "logP": "5.78^[b]"}, {"smiles": "C=C(CON=C(C)c1cc(C)ccn1)CON=C(C)c1cccc(C)n1", "note": "[compound 398]", "logP": "2.76^[b]"}, {"smiles": "C=C(CON=C(C)c1cccc(C(F)(F)F)c1)CON=C(C)c1cccc(C)n1", "note": "[compound 399]", "logP": "5.36^[b]"}, {"smiles": "C=C(CON=C(C)c1ccc2c(c1)OCO2)CON=C(C)c1cccc(C)n1", "note": "[compound 401]", "logP": "4.20^[b]"}, {"smiles": "C=C(CON=C(C)c1cccc(C)n1)CON=C(C)c1ccccc1Cl", "note": "[compound 402]", "logP": "4.74^[b]"}, {"smiles": "C=C(CON=C(C)c1ccc(OC)c(OC)c1)CON=C(C)c1cccc(C)n1", "note": "[compound 403]", "logP": "3.75^[b]"}]}]}
